Patent US20120077802A1 (SUNOVION PHARMACEUTICALS INC., priority 2009, published 2012)

Each molecule was assayed against T1, human histamine H3 receptor (Homo sapiens, UniProt Q9Y5N1) (assay: H3 GTPγS assay (SPA method), histamine H3 in vitro assay). Conditions: GTPγ[35S] SPA, membranes of cells expressing human H3 receptor; in one embodiment HCl salts tested; read-out: Potency (functional potency as indicated by IC50).
T1 construct: host or cells: cells expressing the human H3 receptor
Type: biochemical
Method: H3 GTPγS assay (SPA method) was performed at EuroScreen (Belgium, ES-392-C) using conventional methods. Briefly, cells expressing the human histamine H3 receptor were homogenized in 15 mM Tris-HCl pH 7.5, 2 mM MgCl2, 0.3 mM EDTA, and 1 mM EGTA. Membranes were washed twice in the above tris buffer, collected by centrifugation (40,000×g, 25 min), and re-suspended in 75 mM Tris-HCl pH 7.5, 12.5 mM MgCl2, 0.3 mM EDTA, 1 mM EGTA, and 250 mM sucrose. Membranes were frozen in liquid nitrogen until use. On the day of the assay, membranes were thawed and diluted in assay buffer (20 mM HEPES pH 7.4, 100 mM NaCl, 10 μg/ml saponin, 1 mM MgCl2) to give 500 μg/ml and mixed (v/v) with GDP in assay buffer for a final GDP concentration of 10 μM and incubated on ice for at least 15 min. PVT-WGA beads (Amersham, RPNQ001) were diluted in assay buffer at 50 mg/mL and mixed with GTPγ[^35S] (Amersham, SJ1308) diluted in assay buffer to give ˜25,000 dpm/10 μL, and mixed vol/vol just before the start of the reaction. The reaction was started by adding 50 μL of test compound, 20 μL of the membranes:GDP mix, 10 μL of buffer, and 20 μL of the GTPγ[^35S]:beads mix in a 96 well plate Optiplate™ (PerkinElmer, 6005299) covered with topseal (TopCount™, PerkinElmer), mixed with an orbital shaker for 2 min, incubated for 1 hour at room temperature, centrifuged for 10 min at 2000 rpm, incubated for 1 h at room temperature, and counted for 1 min in a TopCount™ reader (PerkinElmer). Dose response curves and IC50 values (concentration to inhibit the reaction by 50%) were calculated by nonlinear regression using XLfit software (IDBS).
For antagonists testing, 10 μL of a reference agonist (R-γ-Me-Histamine) instead of 10 μL buffer was added at a concentration corresponding to the EC80 (30 nM). Control ligands were R-γ-Me-Histamine (Tocris, 0569), Imetit (Sigma, I-135), Thioperamide (Tocris, 0644), and Clobenpropit (Tocris, 0754) diluted in assay buffer.
The compounds provided herein were tested in the histamine H3 in vitro assay. In one embodiment, the respective HCl salts of the compounds provided herein were prepared using standard chemical procedures and tested in the histamine H3 in vitro assay.

T1 sequence (Q9Y5N1 whole entry): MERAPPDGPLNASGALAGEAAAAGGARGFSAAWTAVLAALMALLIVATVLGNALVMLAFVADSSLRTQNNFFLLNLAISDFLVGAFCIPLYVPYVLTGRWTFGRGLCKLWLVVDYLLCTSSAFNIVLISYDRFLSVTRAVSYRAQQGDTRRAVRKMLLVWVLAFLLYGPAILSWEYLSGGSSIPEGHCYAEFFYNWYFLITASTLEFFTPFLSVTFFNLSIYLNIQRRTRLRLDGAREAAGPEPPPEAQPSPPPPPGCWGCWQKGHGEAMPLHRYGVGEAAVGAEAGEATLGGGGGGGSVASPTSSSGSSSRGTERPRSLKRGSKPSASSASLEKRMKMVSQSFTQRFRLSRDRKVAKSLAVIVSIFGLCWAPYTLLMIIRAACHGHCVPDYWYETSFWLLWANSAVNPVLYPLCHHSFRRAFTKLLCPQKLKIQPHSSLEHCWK

Molecule | IC50 [nM]
4-(1′,2′,3′,5′,6′,7′,9′,9a′-Octahydro-3H-spiro[benzofuran-2,8′-pyrrolo[1,2-a]azepin]-5-yl)benzonitrile and 4-(1′,2′,3′,5′,6′,8′,9′,9a′-octahydro-3H-spiro[benzofuran-2,7′-pyrrolo[1,2-a]azepin]-5-yl)benzonitrile [95/95a] | ≤ 100
5-((3,4-Dihydroisoquinolin-2(1H)-yl)methyl)-1′,2′,3′,5′,6′,7′,9′,9a′-octahydro-3H-spiro[benzofuran-2,8′-pyrrolo[1,2-a]azepine] and 5-((3,4-dihydroisoquinolin-2(1H)-yl)methyl)-1′,2′,3′,5′,6′,8′,9′,9a′-octahydro-3H-spiro[benzofuran-2,7′-pyrrolo[1,2-a]azepine] [97/97a] | ≤ 10
5-((3,4-Dihydroisoquinolin-2(1H)-yl)methyl)-2′,3′,4′,6′,7′,9′,10′,10a′-octahydro-1′H,3H-spiro[benzofuran-2,8′-pyrido[1,2-a]azepine] and 5-((3,4-dihydroisoquinolin-2(1H)-yl)methyl)-2′,3′,4′,6′,7′,8′,10′,10a′-octahydro-1′H,3H-spiro[benzofuran-2,9′-pyrido[1,2-a]azepine] [88/88a] | ≤ 100
5-(Imidazo[1,2-a]pyridin-6-yl)-1′,2′,3′,5′,6′,7′,9′,9a′-octahydro-3H-spiro[benzofuran-2,8′-pyrrolo[1,2-a]azepine] and 5-(imidazo[1,2-a]pyridin-6-yl)-1′,2′,3′,5′,6′,8′,9′,9a′-octahydro-3H-spiro[benzofuran-2,7′-pyrrolo[1,2-a]azepine] [96/96a] | ≤ 10
5-(Morpholinomethyl)-2′,3′,4′,6′,7′,9′,10′,10a′-octahydro-1′H,3H-spiro[benzofuran-2,8′-pyrido[1,2-a]azepine] and 5-(morpholinomethyl)-2′,3′,4′,6′,7′,8′,10′,10a′-octahydro-1′H,3H-spiro[benzofuran-2,9′-pyrido[1,2-a]azepine] [87/87a] | ≤ 100
5-Bromo-1′,2′,3′,5′,6′,7′,9′,9a′-octahydro-3H-spiro[benzofuran-2,8′-pyrrolo[1,2-a]azepine] and 5-bromo-1′,2′,3′,5′,6′,8′,9′,9a′-octahydro-3H-spiro[benzofuran-2,7′-pyrrolo[1,2-a]azepine] [94/94a] | ≤ 1000
5-Bromo-2′,3′,4′,6′,7′,9′,10′,10a′-octahydro-1′H,3H-spiro[benzofuran-2,8′-pyrido[1,2-a]azepine] and 5-bromo-2′,3′,4′,6′,7′,8′,10′,10a′-octahydro-1′H,3H-spiro[benzofuran-2,9′-pyrido[1,2-a]azepine] [82/82a] | ≤ 1000
c1ccc2c(c1)ncn2-c1ccc2c(c1)C[C@]1(CCCN(C3CCC3)CC1)O2 (single isomer, unassigned) [Compound 52, 5′-(1H-Benzo[d]imidazol-1-yl)-1-cyclobutyl-3′H-spiro[azepane-4,2′-benzofuran]] | ≤ 100
c1ccc2c(c1)ncn2-c1ccc2c(c1)C[C@]1(CCCN(C3CCC3)CC1)O2 (single isomer, unassigned) [Compound 53, 5′-(1H-Benzo[d]imidazol-1-yl)-1-cyclobutyl-3′H-spiro[azepane-4,2′-benzofuran]] | ≤ 100
Brc1ccc2c(c1)CC1(CCN3CCCCC3C1)O2 (single isomer, unassigned) [Compound 72, 5-Bromo-1′,3′,4′,6′,7′,8′,9′,9a′-octahydro-3H-spiro[benzofuran-2,2′-quinolizine]] | ≤ 1000
Brc1ccc2c(c1)CC1(CCN3CCCCC3C1)O2 (single isomer, unassigned) [Compound 73, 5-Bromo-1′,3′,4′,6′,7′,8′,9′,9a′-octahydro-3H-spiro[benzofuran-2,2′-quinolizine]] | ≤ 100
c1ccc2c(c1)CC1(CCN(C3CCC3)CC1)O2 [Compound 1, 1′-Cyclobutyl-3H-spiro[benzofuran-2,4′-piperidine]] | ≤ 100
CC(C1CCC1)N1CCC2(CC1)Cc1ccccc1O2 (centres unmarked) [Compound 4, 1′-(1-Cyclobutylethyl)-3H-spiro[benzofuran-2,4′-piperidine]] | ≤ 1000
CC(=O)Nc1ccc(-c2ccc3c(c2)CC2(CCN(C4CCC4)CC2)O3)cc1 [Compound 6, N-(4-(1′-Cyclobutyl-3H-spiro[benzofuran-2,4′-piperidine]-5-yl)phenyl)acetamide] | ≤ 10
c1cc2cc(-c3ccc4c(c3)CC3(CCN(C5CCC5)CC3)O4)ccc2[nH]1 [Compound 7, 1′-Cyclobutyl-5-(1H-indol-5-yl)-3H-spiro[benzofuran-2,4′-piperidine]] | ≤ 100
CN1CCC(N2CCC3(CC2)Cc2cc(-c4ccc(C#N)cc4)ccc2O3)CC1 [Compound 8, 4-(1′-(1-Methylpiperidin-4-yl)-3H-spiro[benzofuran-2,4′-piperidine]-5-yl)benzonitrile] | ≤ 100
CC(=O)Nc1ccc(-c2ccc3c(c2)CC2(CCN(C4CCN(C)CC4)CC2)O3)cc1 [Compound 9, N-(4-(1′-(1-Methylpiperidin-4-yl)-3H-spiro[benzofuran-2,4′-piperidine]-5-yl)phenyl)acetamide] | ≤ 100
CN1CCC(N2CCC3(CC2)Cc2cc(-c4ccc5[nH]ccc5c4)ccc2O3)CC1 [Compound 10, 5-(1H-Indol-5-yl)-1′-(1-methylpiperidin-4-yl)-3H-spiro[benzofuran-2,4′-piperidine]] | ≤ 1000
CC(C1CCC1)N1CCC2(CC1)Cc1cc(-c3ccc(C#N)cc3)ccc1O2 (centres unmarked) [Compound 11, 4-(1′-(1-Cyclobutylethyl)-3H-spiro[benzofuran-2,4′-piperidine]-5-yl)benzonitrile] | ≤ 10
CC(=O)Nc1ccc(-c2ccc3c(c2)CC2(CCN(C(C)C4CCC4)CC2)O3)cc1 (centres unmarked) [Compound 12, N-(4-(1′-(1-Cyclobutylethyl)-3H-spiro[benzofuran-2,4′-piperidine]-5-yl)phenyl)acetamide] | ≤ 10
CC(C1CCC1)N1CCC2(CC1)Cc1cc(-c3ccc4[nH]ccc4c3)ccc1O2 (centres unmarked) [Compound 13, 1′-(1-Cyclobutylethyl)-5-(1H-indol-5-yl)-3H-spiro[benzofuran-2,4′-piperidine]] | ≤ 100
NCc1ccc(-c2ccc3c(c2)CC2(CCN(C4CCC4)CC2)O3)cc1 [Compound 14, (4-(1′-Cyclobutyl-3H-spiro[benzofuran-2,4′-piperidine]-5-yl)phenyl)methanamine] | ≤ 100
CN1CCC(N2CCC3(CC2)Cc2cc(-c4ccc(CN)cc4)ccc2O3)CC1 [Compound 15, (4-(1′-(1-Methylpiperidin-4-yl)-3H-spiro[benzofuran-2,4′-piperidine]-5-yl)phenyl)methanamine] | ≤ 100
CC(C1CCC1)N1CCC2(CC1)Cc1cc(-c3ccc(CN)cc3)ccc1O2 (centres unmarked) [Compound 16, (4-(1′-(1-Cyclobutylethyl)-3H-spiro[benzofuran-2,4′-piperidine]-5-yl)phenyl)methanamine] | ≤ 10
N#Cc1ccc(-c2ccc3c(c2)CC2(CCN(C4CCCC4)CC2)O3)cc1 [Compound 17, 4-(1′-Cyclopentyl-3H-spiro[benzofuran-2,4′-piperidine]-5-yl)benzonitrile] | ≤ 100
CC1CCCC1N1CCC2(CC1)Cc1cc(-c3ccc(C#N)cc3)ccc1O2 (centres unmarked) [Compound 18] | ≤ 100
N#Cc1ccc(-c2ccc3c(c2)CC2(CCN(C4CCOCC4)CC2)O3)cc1 [Compound 19, 4-(1′-(Tetrahydro-2H-pyran-4-yl)-3H-spiro[benzofuran-2,4′-piperidine]-5-yl)benzonitrile] | ≤ 100
N#Cc1ccc(-c2ccc3c(c2)CC2(CCN(C4CCCCC4)CC2)O3)cc1 [Compound 20, 4-(1′-Cyclohexyl-3H-spiro[benzofuran-2,4′-piperidine]-5-yl)benzonitrile] | ≤ 100
N#Cc1ccc(-c2ccc3c(c2)CC2(CCN(CC4CCC4)CC2)O3)cc1 [Compound 21, 4-(1′-(Cyclobutylmethyl)-3H-spiro[benzofuran-2,4′-piperidine]-5-yl)benzonitrile] | ≤ 1000
CC(C)N1CCC2(CC1)Cc1cc(-c3ccc(C#N)cc3)ccc1O2 [Compound 22, 4-(1′-Isopropyl-3H-spiro[benzofuran-2,4′-piperidine]-5-yl)benzonitrile] | ≤ 10

Same assay, conditions: histamine H3 in vitro assay; read-out: IC50 values

Molecule | IC50 [nM]
CN1CCC(N2CCC3(CC2)Cc2ccccc2O3)CC1 [Compound 2, 1′-(1-Methylpiperidin-4-yl)-3H-spiro[benzofuran-2,4′-piperidine]] | > 1000
c1ccc2c(c1)CC1(CCN(Cc3c[nH]cn3)CC1)O2 [Compound 3, 1′-((1H-Imidazol-4-yl)methyl)-3H-spiro [benzofuran-2,4′-piperidine]] | > 1000
